The subject of the test is HBV. In words: Viral load production from HepAD38 cells, qPCR of the HBV core sequence in supernatant. The format is cell-based. The note with it: Hepatitis B virus, HePAD38, 120 h, HepAD38 cells, 5 days, HBV DNA in supernatant by qPCR; Table 1 ranges; read-out: Activity (viral load lowering EC50). The essentials:
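EC50 and CC50 come from four-parameter logistic fits of supernatant HBV core DNA (TaqMan qPCR, DNA standards, compared with DMSO wells) and of CellTiter-Glo luminescence.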
For orientation: Quantitative PCR measures a nucleic acid by following its amplification.

A value given as a limit tells only on which side of the number the result lay.

For `CNC(=O)NCC1CC2CC(c3nn(C)c(N)c3C(=O)Nc3ccc(F)c(Cl)c3)CC2C1` (centres unmarked) [Example 49, 5-Amino-N-(3-chloro-4-fluorophenyl)-1-methyl-3-(5-((3-methylureido)methyl)octahydropentalen-2-yl)-1H-pyrazole-4-carboxamide], the EC50 (in general, the concentration at which the effect is half-maximal) was under 10 nM.

On to `Cn1nc(C2CC3CC(CNC(=O)C4CCOCC4)CC3C2)c(C(=O)Nc2ccc(F)c(Cl)c2)c1N` (centres unmarked) [Example 50, 5-Amino-N-(3-chloro-4-fluorophenyl)-1-methyl-3-(5-((tetrahydro-2H-pyran-4-carboxamido)methyl)octahydropentalen-2-yl)-1H-pyrazole-4-carboxamide], for which the 50% effective concentration (EC50) is under 10 nM.

Turning to `CC1CCC(C(=O)NCC2CC3CC(c4nn(C)c(N)c4C(=O)Nc4ccc(F)c(Cl)c4)CC3C2)CC1` (centres unmarked) [Example 51, 5-Amino-N-(3-chloro-4-fluorophenyl)-1-methyl-3-(5-((4-methylcyclohexane-1-carboxamido)methyl)octahydropentalen-2-yl)-1H-pyrazole-4-carboxamide], the half-maximal effective concentration (EC50) is 10 to 50 nM.

Turning to `C#CCCC(=O)NCC1CC2CC(c3nn(C)c(N)c3C(=O)Nc3ccc(F)c(Cl)c3)CC2C1` (centres unmarked) [Example 52, 5-Amino-N-(3-chloro-4-fluorophenyl)-1-methyl-3-(5-(pent-4-ynamidomethyl)octahydropentalen-2-yl)-1H-pyrazole-4-carboxamide], the half-maximal effective concentration (EC50) was under 10 nM.

As to `Cn1nc(C2CC3CC(CNC(=O)C4CCC(F)(F)CC4)CC3C2)c(C(=O)Nc2ccc(F)c(Cl)c2)c1N` (centres unmarked) [Example 53, 5-Amino-N-(3-chloro-4-fluorophenyl)-3-(5-((4,4-difluorocyclohexane-1-carboxamido)methyl)octahydropentalen-2-yl)-1-methyl-1H-pyrazole-4-carboxamide], the half-maximal effective concentration (EC50) is under 10 nM.

With `CC(=O)NCC1CC2CC(c3nn(C)c(N)c3C(=O)Nc3ccc(F)c(Cl)c3)CC2C1` (centres unmarked) [Example 54, 3-(5-(Acetamidomethyl)octahydropentalen-2-yl)-5-amino-N-(3-chloro-4-fluorophenyl)-1-methyl-1H-pyrazole-4-carboxamide], the EC50 was under 10 nM.

For `Cn1nc(C2CC3CC(CNC(=O)CC(F)(F)F)CC3C2)c(C(=O)Nc2ccc(F)c(Cl)c2)c1N` (centres unmarked) [Example 55, 5-Amino-N-(3-chloro-4-fluorophenyl)-1-methyl-3-(5-((3,3,3-trifluoropropanamido)methyl)octahydropentalen-2-yl)-1H-pyrazole-4-carboxamide], the 50% effective concentration (EC50) is under 10 nM.

In the case of `Cn1nc(C2CC3CC(CNC(=O)CCC(C)(C)C)CC3C2)c(C(=O)Nc2ccc(F)c(Cl)c2)c1N` (centres unmarked) [Example 56, 5-Amino-N-(3-chloro-4-fluorophenyl)-3-(5-((4,4-dimethylpentanamido)methyl)octahydropentalen-2-yl)-1-methyl-1H-pyrazole-4-carboxamide], the EC50 is under 10 nM.

In the case of `Cn1nc(C2CC3CC(CNC(=O)c4ccc(C(F)(F)F)cc4)CC3C2)c(C(=O)Nc2ccc(F)c(Cl)c2)c1N` (centres unmarked) [Example 57, 5-Amino-N-(3-chloro-4-fluorophenyl)-1-methyl-3-(5-((4-(trifluoromethyl)benzamido)methyl)octahydropentalen-2-yl)-1H-pyrazole-4-carboxamide], the EC50 was in the range of 10 to 50 nM.

For `Cn1nc(C2CC3CC(CNC(=O)c4cnc(C(F)(F)F)s4)CC3C2)c(C(=O)Nc2ccc(F)c(Cl)c2)c1N` (centres unmarked) [Example 58, N-((5-(5-Amino-4-((3-chloro-4-fluorophenyl)carbamoyl)-1-methyl-1H-pyrazol-3-yl)octahydropentalen-2-yl)methyl)-2-(trifluoromethyl)thiazole-5-carboxamide], the EC50 is 10 to 50 nM.

As for `Cc1noc(C)c1C(=O)NCC1CC2CC(c3nn(C)c(N)c3C(=O)Nc3ccc(F)c(Cl)c3)CC2C1` (centres unmarked) [Example 59, N-((5-(5-Amino-4-((3-chloro-4-fluorophenyl)carbamoyl)-1-methyl-1H-pyrazol-3-yl)octahydropentalen-2-yl)methyl)-3,5-dimethylisoxazole-4-carboxamide], the EC50 is under 10 nM.

For `Cn1nc(C2CC3CC(CNC(=O)c4ccns4)CC3C2)c(C(=O)Nc2ccc(F)c(Cl)c2)c1N` (centres unmarked) [Example 60, N-((5-(5-Amino-4-((3-chloro-4-fluorophenyl)carbamoyl)-1-methyl-1H-pyrazol-3-yl)octahydropentalen-2-yl)methyl)isothiazole-5-carboxamide], the 50% effective concentration (EC50) is under 10 nM.

Take `Cn1nc(C2CC3CC(CNC(=O)c4cncc(F)c4)CC3C2)c(C(=O)Nc2ccc(F)c(Cl)c2)c1N` (centres unmarked) [Example 61, N-((5-(5-Amino-4-((3-chloro-4-fluorophenyl)carbamoyl)-1-methyl-1H-pyrazol-3-yl)octahydropentalen-2-yl)methyl)-5-fluoronicotinamide]: the concentration for a half-maximal effect (EC50) was under 10 nM.

In the case of `Cn1nc(C2CC3CC(CNC(=O)C4CCN(C(=O)OC(C)(C)C)CC4)CC3C2)c(C(=O)Nc2ccc(F)c(Cl)c2)c1N` (centres unmarked) [Example 62, tert-Butyl 4-(((5-(5-amino-4-((3-chloro-4-fluorophenyl)carbamoyl)-1-methyl-1H-pyrazol-3-yl)octahydropentalen-2-yl)methyl)carbamoyl)piperidine-1-carboxylate], the EC50 was under 10 nM.

Take `Cn1nc(C2CC3CC(CNC(=O)C(C)(C)C4CCOCC4)CC3C2)c(C(=O)Nc2ccc(F)c(Cl)c2)c1N` (centres unmarked) [Example 63, 5-Amino-N-(3-chloro-4-fluorophenyl)-1-methyl-3-(5-((2-methyl-2-(tetrahydro-2H-pyran-4-yl)propanamido)methyl)octahydropentalen-2-yl)-1H-pyrazole-4-carboxamide]: the concentration for a half-maximal effect (EC50) lay within 10 to 50 nM.

For the compound `Cn1nc(C2CC3CC(CNC(=O)C4(C)COC4)CC3C2)c(C(=O)Nc2ccc(F)c(Cl)c2)c1N` (centres unmarked) [Example 64, 5-Amino-N-(3-chloro-4-fluorophenyl)-1-methyl-3-(5-((3-methyloxetane-3-carboxamido)methyl)octahydropentalen-2-yl)-1H-pyrazole-4-carboxamide], the EC50 is under 10 nM.

Regarding `Cn1nc(C2CC3CC(CNC(=O)C4(C)CC4)CC3C2)c(C(=O)Nc2ccc(F)c(Cl)c2)c1N` (centres unmarked) [Example 65, 5-Amino-N-(3-chloro-4-fluorophenyl)-1-methyl-3-(5-((1-methylcyclopropane-1-carboxamido)methyl)octahydropentalen-2-yl)-1H-pyrazole-4-carboxamide], the half-maximal effective concentration (EC50) is under 10 nM.

For the compound `Cn1nc(C2CC3CC(CNC(=O)C(C)(C)C(F)(F)F)CC3C2)c(C(=O)Nc2ccc(F)c(Cl)c2)c1N` (centres unmarked) [Example 66, 5-Amino-N-(3-chloro-4-fluorophenyl)-1-methyl-3-(5-((3,3,3-trifluoro-2,2-dimethylpropanamido)methyl)octahydropentalen-2-yl)-1H-pyrazole-4-carboxamide], the EC50 was in the range of 10 to 50 nM.

Consider `Cn1nc(C2CC3CC(CNC(=O)C(C)(C)CO)CC3C2)c(C(=O)Nc2ccc(F)c(Cl)c2)c1N` (centres unmarked) [Example 67, 5-Amino-N-(3-chloro-4-fluorophenyl)-3-(5-((3-hydroxy-2,2-dimethylpropanamido)methyl)octahydropentalen-2-yl)-1-methyl-1H-pyrazole-4-carboxamide], for which the EC50 was under 10 nM.

On to `Cn1nc(C2CC3CC(CNC(=O)C4(C)CCC4)CC3C2)c(C(=O)Nc2ccc(F)c(Cl)c2)c1N` (centres unmarked) [Example 68, 5-Amino-N-(3-chloro-4-fluorophenyl)-1-methyl-3-(5-((1-methylcyclobutane-1-carboxamido)methyl)octahydropentalen-2-yl)-1H-pyrazole-4-carboxamide], for which the EC50 is under 10 nM.

As for `Cn1nc(C2CC3CC(CNC(=O)C45CC(C4)C5)CC3C2)c(C(=O)Nc2ccc(F)c(Cl)c2)c1N` (centres unmarked) [Example 69, 5-Amino-3-(5-((bicyclo[1.1.1]pentane-1-carboxamido)methyl)octahydropentalen-2-yl)-N-(3-chloro-4-fluorophenyl)-1-methyl-1H-pyrazole-4-carboxamide], the EC50 is under 10 nM.

On to `Cn1nc(C2CC3CC(CNC(=O)C(C)(C)C4CCN(C(=O)OC(C)(C)C)CC4)CC3C2)c(C(=O)Nc2ccc(F)c(Cl)c2)c1N` (centres unmarked) [Example 70, tert-Butyl 4-(1-(((5-(5-amino-4-((3-chloro-4-fluorophenyl)carbamoyl)-1-methyl-1H-pyrazol-3-yl)octahydropentalen-2-yl)methyl)amino)-2-methyl-1-oxopropan-2-yl)piperidine-1-carboxylate], for which the concentration giving a half-maximal response (EC50) fell in the range of 10 to 50 nM.

Consider `Cn1nc(C2CC3CC(CNC(=O)CCCN4CCCCC4)CC3C2)c(C(=O)Nc2ccc(F)c(Cl)c2)c1N` (centres unmarked) [Example 71, 5-Amino-N-(3-chloro-4-fluorophenyl)-1-methyl-3-(5-((4-(piperidin-1-yl)butanamido)methyl)octahydropentalen-2-yl)-1H-pyrazole-4-carboxamide], for which the half-maximal effective concentration (EC50) lay in the range of 10 to 50 nM.

As for `Cn1nc(C2CC3CC(CNC(=O)CCCN4CCOCC4)CC3C2)c(C(=O)Nc2ccc(F)c(Cl)c2)c1N` (centres unmarked) [Example 72, 5-Amino-N-(3-chloro-4-fluorophenyl)-1-methyl-3-(5-((4-morpholinobutanamido)methyl)octahydropentalen-2-yl)-1H-pyrazole-4-carboxamide], the 50% effective concentration (EC50) is under 10 nM.

With `Cn1nc(C2CC3CC(CNC(=O)CCCCCNC(=O)OC(C)(C)C)CC3C2)c(C(=O)Nc2ccc(F)c(Cl)c2)c1N` (centres unmarked) [Example 73, tert-Butyl (6-(((5-(5-amino-4-((3-chloro-4-fluorophenyl)carbamoyl)-1-methyl-1H-pyrazol-3-yl)octahydropentalen-2-yl)methyl)amino)-6-oxohexyl)carbamate], the EC50 lay within 10 to 50 nM.

Regarding `Cn1nc(C2CC3CC(CNC(=O)COCCOCCNC(=O)OC(C)(C)C)CC3C2)c(C(=O)Nc2ccc(F)c(Cl)c2)c1N` (centres unmarked) [Example 74, tert-Butyl (2-(2-(2-(((5-(5-amino-4-((3-chloro-4-fluorophenyl)carbamoyl)-1-methyl-1H-pyrazol-3-yl)octahydropentalen-2-yl)methyl)amino)-2-oxoethoxy)ethoxy)ethyl)carbamate], the EC50 is under 10 nM.

These data come from patent US20230295096A1, “PYRAZOLE CARBOXAMIDE COMPOUNDS FOR TREATMENT OF HBV” (ASSEMBLY BIOSCIENCES, INC., priority 2020, published 2023).
